Activity calls are given as the source filed them. The calls are words filed in the database; no cut-off is given here.

For experiment [1], the target named is T1, Progesterone receptor (Homo sapiens, UniProt P06401).
T1 sequence (P06401 whole entry): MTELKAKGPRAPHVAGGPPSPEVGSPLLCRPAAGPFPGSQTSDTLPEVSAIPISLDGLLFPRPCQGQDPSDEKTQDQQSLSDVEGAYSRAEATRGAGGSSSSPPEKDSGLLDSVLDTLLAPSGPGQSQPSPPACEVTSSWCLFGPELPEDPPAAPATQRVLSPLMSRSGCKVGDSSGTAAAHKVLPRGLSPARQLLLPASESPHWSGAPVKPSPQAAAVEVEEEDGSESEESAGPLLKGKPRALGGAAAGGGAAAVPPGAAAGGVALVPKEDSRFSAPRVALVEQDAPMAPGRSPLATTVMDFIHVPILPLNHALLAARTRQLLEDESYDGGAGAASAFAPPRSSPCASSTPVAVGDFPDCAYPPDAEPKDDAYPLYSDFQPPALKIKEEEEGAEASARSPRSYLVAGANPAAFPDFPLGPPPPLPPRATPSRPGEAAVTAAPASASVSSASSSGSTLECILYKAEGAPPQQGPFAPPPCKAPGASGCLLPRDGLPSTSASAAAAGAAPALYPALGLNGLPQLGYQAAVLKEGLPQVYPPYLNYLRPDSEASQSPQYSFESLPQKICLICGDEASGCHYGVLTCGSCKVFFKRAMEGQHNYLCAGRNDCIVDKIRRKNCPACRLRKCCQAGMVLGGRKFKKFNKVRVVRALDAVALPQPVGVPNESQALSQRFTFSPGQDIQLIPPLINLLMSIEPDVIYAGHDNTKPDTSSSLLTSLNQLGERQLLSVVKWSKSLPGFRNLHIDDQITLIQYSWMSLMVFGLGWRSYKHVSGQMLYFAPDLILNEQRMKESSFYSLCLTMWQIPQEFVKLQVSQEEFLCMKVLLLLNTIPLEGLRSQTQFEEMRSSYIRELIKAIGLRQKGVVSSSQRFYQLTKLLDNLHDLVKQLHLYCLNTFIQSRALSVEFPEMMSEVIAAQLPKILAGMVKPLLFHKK
Description: Binding affinity against human progesterone receptor (hPR) in a competitive binding assay.

In experiment [2] the target is T2, Mineralocorticoid receptor (Homo sapiens) (UniProt P08235).
T2 sequence (whole entry): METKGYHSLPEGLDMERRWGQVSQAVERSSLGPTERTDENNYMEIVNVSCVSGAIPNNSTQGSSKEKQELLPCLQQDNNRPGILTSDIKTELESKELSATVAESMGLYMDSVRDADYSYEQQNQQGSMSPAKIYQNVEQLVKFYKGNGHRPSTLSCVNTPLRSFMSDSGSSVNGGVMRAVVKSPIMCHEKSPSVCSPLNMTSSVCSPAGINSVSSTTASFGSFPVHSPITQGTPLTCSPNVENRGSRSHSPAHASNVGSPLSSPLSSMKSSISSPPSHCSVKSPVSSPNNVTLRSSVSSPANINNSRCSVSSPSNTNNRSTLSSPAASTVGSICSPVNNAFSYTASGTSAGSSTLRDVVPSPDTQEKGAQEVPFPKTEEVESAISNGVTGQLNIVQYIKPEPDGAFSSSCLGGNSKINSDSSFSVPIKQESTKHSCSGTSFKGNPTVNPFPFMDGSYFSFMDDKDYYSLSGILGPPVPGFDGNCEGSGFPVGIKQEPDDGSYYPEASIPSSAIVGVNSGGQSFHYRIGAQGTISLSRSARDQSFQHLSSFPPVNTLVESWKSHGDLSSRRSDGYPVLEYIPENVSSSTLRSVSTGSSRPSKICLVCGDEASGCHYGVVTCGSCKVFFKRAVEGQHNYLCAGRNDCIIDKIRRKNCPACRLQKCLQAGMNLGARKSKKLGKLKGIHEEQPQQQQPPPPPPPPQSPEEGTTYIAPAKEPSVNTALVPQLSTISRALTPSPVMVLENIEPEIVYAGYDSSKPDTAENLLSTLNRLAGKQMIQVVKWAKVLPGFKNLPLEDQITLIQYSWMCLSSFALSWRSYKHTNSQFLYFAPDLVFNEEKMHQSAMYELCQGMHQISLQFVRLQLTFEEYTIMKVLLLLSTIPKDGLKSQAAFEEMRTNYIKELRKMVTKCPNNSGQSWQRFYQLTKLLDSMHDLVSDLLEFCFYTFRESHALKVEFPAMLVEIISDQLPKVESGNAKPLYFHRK
Briefly: Percent inhibition of mineralocorticoid receptor transcriptional activity at aldosterone EC50; NA=not active. The class given is functional.

For experiment [3], the target named is T1, Progesterone receptor. Description: Antagonist activity against human progesterone receptor (hPR) using cotransfection assay in CV-1 cells. The format is functional, cell-based.
For experiment [4], the target named is T3, Glucocorticoid receptor (Homo sapiens, UniProt P04150).
T3 sequence (P04150 whole entry): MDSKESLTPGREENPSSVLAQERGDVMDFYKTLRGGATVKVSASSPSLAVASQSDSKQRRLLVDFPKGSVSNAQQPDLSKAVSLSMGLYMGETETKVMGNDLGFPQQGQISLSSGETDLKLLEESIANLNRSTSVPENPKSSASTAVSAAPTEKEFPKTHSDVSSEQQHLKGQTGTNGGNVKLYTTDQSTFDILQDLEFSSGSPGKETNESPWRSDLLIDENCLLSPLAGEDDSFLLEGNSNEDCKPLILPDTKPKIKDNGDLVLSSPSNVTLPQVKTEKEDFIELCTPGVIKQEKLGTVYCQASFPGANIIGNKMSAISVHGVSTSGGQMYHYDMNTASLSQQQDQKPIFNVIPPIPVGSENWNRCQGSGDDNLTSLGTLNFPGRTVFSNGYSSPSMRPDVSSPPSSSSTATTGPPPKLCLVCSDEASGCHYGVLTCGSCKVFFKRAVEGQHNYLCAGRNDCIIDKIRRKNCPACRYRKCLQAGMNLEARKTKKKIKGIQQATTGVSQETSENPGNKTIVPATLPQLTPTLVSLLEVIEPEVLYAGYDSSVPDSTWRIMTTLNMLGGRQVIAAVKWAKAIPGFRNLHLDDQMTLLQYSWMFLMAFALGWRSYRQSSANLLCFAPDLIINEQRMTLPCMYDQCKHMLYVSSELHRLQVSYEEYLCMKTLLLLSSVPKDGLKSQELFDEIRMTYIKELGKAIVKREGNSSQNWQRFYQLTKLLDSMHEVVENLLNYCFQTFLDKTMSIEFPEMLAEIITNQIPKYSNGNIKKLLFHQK
Briefly: Cross-reactivity as binding to human glucocorticoid receptor (hGR); NA=not active. The format is functional.

Experiment [5] has as its target T4, Mineralocorticoid receptor (Homo sapiens, UniProt P08235).
T4 sequence (P08235 whole entry): T2 sequence (whole entry)
Briefly: Cross-reactivity as binding to human mineralocorticoid receptor (hMR); NA=not active. The class given is functional.

The target of experiment [6] is T1, Progesterone receptor. Briefly: Human progesterone receptor (hPR) agonist activity using cotransfection assay in CV-1 cells. The format is functional, cell-based.

In the case of `CC1=CC(C)(C)Nc2ccc(-c3ccc([N+](=O)[O-])s3)cc21`, the Ki in experiment [1] amounted to 2.6 nM. For the same molecule, the Efficacy entry in experiment [2] is “inactive”. Also, the 50% inhibitory concentration (IC50) was 31 nM in experiment [3], “Not Active” in experiment [4] and “Not Active” in experiment [5]. The EC50 result in experiment [6] was “Not Active”.

Usually Ki stands for the dissociation constant of the complex between target and ligand, obtained from inhibition or displacement. A word on the IC50: it is the concentration needed to halve the response being measured. Low readings indicate inhibition by little substance, high ones a need for much substance.

Values taken from ChEMBL document CHEMBL1133403 (Bioorg Med Chem Lett, 2000).
